pIC50: −log10 of the molar value. “Also recorded” adds a separate entry of the source. Where two headings read alike, the source gives them in different places.
What was measured:
[1] = biological target: T1, CKIα (Homo sapiens, UniProt P48729); test: In vitro kinase assay (Kinase Glo), CKIα; format: biochemical; conditions: for light dependence of CKIα inhibition (in words): UV light 365 nm vs dark; for fold difference in CKIα inhibition between dark and UV-irradiated sample: trans vs cis-enriched (365 nm), 5 is stronger under light, the others weaker
T1 construct: purchased Invitrogen PV3850
T1 sequence (P48729 whole entry): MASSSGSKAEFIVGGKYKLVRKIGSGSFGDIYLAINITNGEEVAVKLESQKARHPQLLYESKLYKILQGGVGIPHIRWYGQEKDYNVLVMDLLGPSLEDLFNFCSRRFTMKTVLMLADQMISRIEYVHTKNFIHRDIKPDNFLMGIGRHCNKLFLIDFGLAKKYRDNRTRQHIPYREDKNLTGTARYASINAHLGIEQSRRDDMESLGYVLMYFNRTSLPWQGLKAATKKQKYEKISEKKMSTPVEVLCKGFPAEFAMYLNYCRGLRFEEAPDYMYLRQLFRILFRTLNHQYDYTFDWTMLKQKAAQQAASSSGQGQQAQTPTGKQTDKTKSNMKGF
Method: A stock solution of 7.4 mM in DMSO was prepared and thermally adapted by heating to c.a. 100 °C for 1 min. Two series of eight samples were prepared with consecutive three-time dilutions from the stock solution. One of the series (‘dark’ samples) was prepared in dark Eppendorf tube, the other series (‘light’ samples) was pre-irradiated with UV light (365 nm, UV lamp Spectroline, ENB-280/FE, 1 × 8 Watt) for 45 min. For compound 9, 1 mM solution in DMSO was thermally adapted by heating to 80 °C for 2 min and split into two vials. One vial was kept in the dark and the other was irradiated with green light (530 nm, 3x Nichia NCSG219B-V1, 3 × 550 mW, Sahlmann Photochemical Solutions) for 60 min. Both dark-kept and irradiated samples were subjected to 8-point 3-fold dilutions. All the solutions were applied to the well plate under a red lamp in the dark room in order to prevent ambient-light-induced photo-isomerization.
The assays were performed on a white, solid-bottom 384-well plates. The total volume for the reaction is 10.5 µl. Firstly, a solution of CKI and peptide was added to the bottom of the well (9 µL). Next, a corresponding solution of the compound (0.5 μL, final 5% DMSO) followed by 50 μM ATP solution (1 μL) were pipetted into the upper corners of each well. The enzymatic reaction was started by spinning down the plate (1800 x g, 2 min).
By employing this method, all reactions were started at the same time, minimizing variance between different samples. Incubation for 3 h at 30 °C or 2 h at 37 °C allowed for the enzymatic phosphorylation of the substrate peptide. As the reaction started, the wells with ‘light’ samples were irradiated with UV light or kept in dark in case of experiment with compound 9. ‘Dark’ (0 min pre-irradiation) wells were covered with an aluminum sticker from the beginning. After the incubation, 10 μL Kinase Glo® (Promega) was applied into the wells and the luminescent signal was recorded by a plate reader (BioTek Synergy H1 or Cytation).
The total volume for the reaction was 10.5 µl. The reaction mixture contained the following: for CKIδ, 4 ng/µl CKIδ (14-520, Eurofins), 50 µM peptide substrate RKKKAEpSVASLTSQCSYSS corresponding to human PER2 Lys659-Ser674, and CKI buffer (40 mM Tris, 10 mM MgCl2, 0.5 mM DTT, 0.1 mg/ml BSA, pH7.4); for CKIα, 1 ng/µl CKIα (PV3850, Invitrogen), 50 µM CKI peptide substrate (60547-1, Anaspec), and CKI buffer.
The data obtained from the in vitro kinase assay was analyzed using GraphPad software, in which the luminescence outcome is normalized. Normalization is done using a luminescent output of the control that contained high concentration of longdaysin (370 µM) as 100% inhibition and DMSO for 0% inhibition. In all graphs, a dose-response fit was used to obtain

[2] = tested on: U2OS cells; test: Circadian period assay in Bmal1-dLuc U2OS reporter cells; format: cell-based, human
Method: Next, we tested if the observed light-dependent CKIα inhibition translates into photomodulation of the circadian period in human U2OS cells (Fig. 2d). The Bmal1-dLuc reporter cell line contains the coding sequence of destabilized luciferase driven by the Bmal1 gene promoter sequence. The cell culture medium for luminescence recording includes a high concentration of luciferin (0.2 mM), a substrate for luciferase, which strongly absorbs UV light (Supplementary Fig. 30). […] As the circadian period change is directly correlated with the potency and concentration of the inhibitor[10], the cells were treated with photoswitchable modulators using a broad range of concentrations.
In comparison to the kinase assay, the direct use of UV light for preventing a thermal back-isomerization of the cis-isomer was not feasible due to the cell-damaging effect and the presence of luciferin in the medium. Therefore, the modulators were kept in the dark or photo-isomerized in DMSO prior to the addition, without further irradiation during the circadian assay. All three modulators lengthened the period in the U2OS cells both in the dark and upon irradiation (Fig. 2d). […] Altogether, based on the efficient generation of the cis-isomer under irradiation, retained potency and promising light-modulation of CKIα inhibition, the meta-substituted modulator 4 was identified as representing lead substitution pattern for further investigation.
Stable U2OS reporter cells harboring Bmal1-dLuc reporter were suspended in phenol red-free culture medium [DMEM (D2902, Sigma) supplemented with 10% fetal bovine serum, 3.5 mg/mL D-glucose, 3.7 mg/mL sodium bicarbonate, 0.29 mg/mL L-glutamine, 100 units/mL penicillin, and 100 µg/mL streptomycin] and plated onto a white, solid-bottom 384-well plates at 30 µL (3000 cells) per well. After 2 days, 40 µL of phenol red-free explant medium [DMEM (D2902, Sigma) supplemented with 2% B27 (Gibco), 10 mM HEPES, 3.5 mg/mL D-glucose, 0.38 mg/mL sodium bicarbonate, 0.29 mg/mL L-glutamine, 100 units/mL penicillin, 100 µg/mL streptomycin, and 0.2 mM luciferin; pH 7.2] was dispensed into each well, followed by the application of 0.5 μL of compounds (dissolved in DMSO; final 0.7% DMSO; pre-irradiated with UV for 60 min, white LED for 10 min, and/or green LED for 60 min when indicated). The plate was covered with an optically clear film, and subjected to irradiation with 530 nm LED lamp (3 × 550 mW, λmax = 530 nm, FWHM 36 nm, Sahlmann Photochemical Solutions) or 400 nm LED lamp (3 × 1000 mW, λmax = 400 nm, FWHM 11.9 nm, Sahlmann Photochemical Solutions) from 12 cm distance for 30 min. Compound handling and irradiation were conducted in a dark room under red lamp illumination. Luminescence was recorded every 100 min in a microplate reader, Infinite M200Pro (Tecan). For the phase control experiments, cellular light irradiation was performed in a dark 32 °C room and luminescence was recorded in a microplate reader Synergy H1 (BioTek) placed in the same room, to avoid possible effect of transient temperature change on the phase. Circadian period and phase were determined from luminescence rhythms by a curve fitting program MultiCycle (Actimetrics). Data from the first day was excluded from analysis, because of transient changes in luminescence upon medium change. Statistical significance was evaluated using two-way analysis of variance (ANOVA) followed by a Sidak’s multiple comparisons test or one-way ANOVA followed by a Tukey’s multiple comparisons test using Prism software (GraphPad Software).

[3] = Chemical stability under dark and irradiation conditions followed by LCMS; format: physicochemical; conditions: 40 µM in kinase assay buffer or cell culture medium, dark, 365 nm 3 h, 400 nm 30 min
Method: LCMS traces of stability studies
Supplementary Figure 8. Chemical stability of compound 3 under dark and irradiation conditions followed by LCMS. All the samples were prepared as 40 µM solution in buffer or cell culture medium. ‘Buffer’ and ‘medium’ samples were injected immediately upon dissolving compound 3, ‘buffer_3h_dark’ was injected after 3 h of keeping the solution in dark, ‘buffer_3h_365nm’ after irradiation of the sample for 3 h with UV light in kinase assay buffer, and ‘medium_30min_400nm’ after 30 min of irradiation with 400 nm in cell culture medium. The trans-isomer was followed at the retention time of 10.41-10.47 min and the cis-isomer at the retention time of 8.84-8.90 min. Mass spectra of both isomers in different […]
(1 picture or pasted object on this page, not shown here)

[4] = Solubility test in kinase assay buffer and cell culture medium; format: physicochemical
Method: Solubility studies were performed in kinase assay buffer and cell culture medium. Half of the solutions of the compounds in DMSO was thermally adapted (‘Dark’) and the other half was irradiated for 1 h with UV light (λmax = 365 nm, ‘Light’) green light in case of 9 (λmax = 530 nm, ‘Light’). Solubility is indicated in the Supplementary Table 1. […]
precipitation were excluded from the dose-response curves in the enzymatic assay .
Supplementary Table 1. Solubility of the photos witchable compounds in the highest concentrations that were used in the enzymatic assay.
Kinase assay buffer Cell culture medium […]

[5] = irradiated with UV light (365 nm) before and during the assay, cis-enriched, read-out: CKIα IC50, light
[6] = thermally adapted trans-isomer kept in the dark, read-out: CKIα IC50, dark

Row | Structure (SMILES) | pIC50 [1, 5] | pIC50 [1, 6] | light-induced change of period lengthening ([2]; 72 μM, UV pre-irradiated vs dark) | chemical stability (reduction or oxidation of the azo group) [3] | solubility in aqueous media (in words) [4] | light dependence of CKIα inhibition (in words) [1] | fold difference in CKIα inhibition between dark and UV-irradiated sample [1] | light-induced deactivation of period lengthening ([2]; 3 μM, UV pre-irradiated vs dark) | period lengthening in U2OS cells ([2]; 24 μM) [h] | light-modulation of period lengthening ([2]; 24 μM, UV pre-irradiated vs dark) | influence of green or violet light on the period change ([2]; control experiment) | effect of UV light irradiation on period lengthening ([2]; UV (365 nm) pre-irradiated) | recovery of biological activity upon back-isomerization with white light ([2]; UV light followed by white light) | period lengthening effect under dark conditions ([2]; dark)
1 | CC(C)n1cnc2c(NCc3ccccc3/N=N/c3ccccc3)ncnc21 [Compound 5] | 4.27 | 4.02 | weak activation | Products of reduction or oxidation were not observed | solubility issues at high concentrations |  |  |  |  |  |  |  |  | 
2 | CC(C)n1cnc2c(NCc3cccc(/N=N/c4ccccc4)c3)ncnc21 [Compound 4] | 5.07 | 5.72 |  | Products of reduction or oxidation were not observed |  | substantial light-induced inactivation | 4.5 fold | ca. 2 h |  |  |  |  |  | 
3 | CC(C)n1cnc2c(NCc3ccc(/N=N/c4ccccc4)cc3)ncnc21 [Compound 3] | 5.35 | 5.44 |  | Products of reduction or oxidation were not observed |  | no obvious light-dependent changes of CKIα inhibition |  |  | 4 | no light-modulation |  |  |  | 
4 | CC(C)n1cnc2c(NCc3cccc(C(F)(F)F)c3)ncnc21 [longdaysin, reference compound] | 5.37 |  |  |  |  | negligible effect of UV irradiation on the potency |  |  |  |  | negligible influence |  |  | 
5 | CC(C)n1cnc2c(NCc3cccc(/N=N/c4c(F)cccc4F)c3)ncnc21 [Compound 7] | 5.03 | 5.62 |  | Products of reduction or oxidation were not observed; also recorded: both chemical and photochemical stability |  |  | four times less potent |  |  |  |  | suppressed by UV light irradiation; also recorded: most pronounced period lengthening deactivation | partial recovery | strong period lengthening effect
6 | COc1ccc(/N=N/c2cccc(CNc3ncnc4c3ncn4C(C)C)c2)cc1 [Compound 6] | 4.88 | 5.55 |  | Products of reduction or oxidation were not observed | increased solubility |  | 5 fold |  |  |  |  |  |  | 
